Measured values from article PMC11330417, “Insights into the transglucosylation activity of α-glucosidase from Schwanniomyces occidentalis” (Applied Microbiology and Biotechnology, 2024).

Target: T1, α-glucosidase GAM1p (Schwanniomyces occidentalis, UniProt Q401B1, S845A)
T1 construct: gene GAM1; full-length gene with own signal peptide of 22 residues (960 aa precursor), no tag (native stop codon), AOX1 promoter vector pIB4, secreted by Komagataella phaffii GS115; glycosylated, about 143 kDa; concentrated on 50-kDa membrane
Assay: HPLC-PAD, MS and NMR of glucosylated products
Assay type: biochemical
Conditions: glucosyl acceptor; 20 mM piceid, 300 g/L maltose as donor, 20% DMSO, sodium acetate pH 4.5, 37 °C

T1 sequence (Q401B1 entry or part of it S845A): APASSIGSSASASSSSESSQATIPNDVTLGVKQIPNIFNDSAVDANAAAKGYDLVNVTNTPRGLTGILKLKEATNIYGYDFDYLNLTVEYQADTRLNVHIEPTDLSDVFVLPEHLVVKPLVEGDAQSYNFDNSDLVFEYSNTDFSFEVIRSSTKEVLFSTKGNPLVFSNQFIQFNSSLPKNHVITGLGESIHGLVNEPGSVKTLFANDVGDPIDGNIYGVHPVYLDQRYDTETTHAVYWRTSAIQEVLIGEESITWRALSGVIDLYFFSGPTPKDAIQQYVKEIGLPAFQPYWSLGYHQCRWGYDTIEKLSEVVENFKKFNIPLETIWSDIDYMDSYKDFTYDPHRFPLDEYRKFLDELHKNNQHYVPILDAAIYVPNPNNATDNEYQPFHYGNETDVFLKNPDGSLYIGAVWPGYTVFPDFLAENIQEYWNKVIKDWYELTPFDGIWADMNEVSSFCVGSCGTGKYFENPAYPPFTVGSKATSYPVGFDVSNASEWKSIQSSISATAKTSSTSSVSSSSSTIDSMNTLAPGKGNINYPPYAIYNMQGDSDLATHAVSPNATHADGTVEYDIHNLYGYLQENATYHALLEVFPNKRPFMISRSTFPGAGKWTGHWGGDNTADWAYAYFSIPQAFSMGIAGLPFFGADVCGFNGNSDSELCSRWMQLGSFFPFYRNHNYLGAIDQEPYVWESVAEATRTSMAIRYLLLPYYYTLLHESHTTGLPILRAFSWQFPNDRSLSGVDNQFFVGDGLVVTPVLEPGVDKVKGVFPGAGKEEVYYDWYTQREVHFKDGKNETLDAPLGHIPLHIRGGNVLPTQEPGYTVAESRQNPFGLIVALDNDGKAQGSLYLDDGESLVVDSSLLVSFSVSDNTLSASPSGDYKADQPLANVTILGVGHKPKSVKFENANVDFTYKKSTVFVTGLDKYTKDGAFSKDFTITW

Compound: OC[C@H]1O[C@@H](Oc2cc(O)cc(/C=C/c3ccc(O)cc3)c2)[C@H](O)[C@@H](O)[C@@H]1O (mixture of isomers) [piceid]
- HPLC-PAD, MS and NMR of glucosylated products: GAM1p was only able to glycosylate piceid (polydatin)
